# Columns and labels:
# [1] = molecular target: T1, Progesterone receptor (Homo sapiens, UniProt P06401)
# T1 sequence (P06401 whole entry): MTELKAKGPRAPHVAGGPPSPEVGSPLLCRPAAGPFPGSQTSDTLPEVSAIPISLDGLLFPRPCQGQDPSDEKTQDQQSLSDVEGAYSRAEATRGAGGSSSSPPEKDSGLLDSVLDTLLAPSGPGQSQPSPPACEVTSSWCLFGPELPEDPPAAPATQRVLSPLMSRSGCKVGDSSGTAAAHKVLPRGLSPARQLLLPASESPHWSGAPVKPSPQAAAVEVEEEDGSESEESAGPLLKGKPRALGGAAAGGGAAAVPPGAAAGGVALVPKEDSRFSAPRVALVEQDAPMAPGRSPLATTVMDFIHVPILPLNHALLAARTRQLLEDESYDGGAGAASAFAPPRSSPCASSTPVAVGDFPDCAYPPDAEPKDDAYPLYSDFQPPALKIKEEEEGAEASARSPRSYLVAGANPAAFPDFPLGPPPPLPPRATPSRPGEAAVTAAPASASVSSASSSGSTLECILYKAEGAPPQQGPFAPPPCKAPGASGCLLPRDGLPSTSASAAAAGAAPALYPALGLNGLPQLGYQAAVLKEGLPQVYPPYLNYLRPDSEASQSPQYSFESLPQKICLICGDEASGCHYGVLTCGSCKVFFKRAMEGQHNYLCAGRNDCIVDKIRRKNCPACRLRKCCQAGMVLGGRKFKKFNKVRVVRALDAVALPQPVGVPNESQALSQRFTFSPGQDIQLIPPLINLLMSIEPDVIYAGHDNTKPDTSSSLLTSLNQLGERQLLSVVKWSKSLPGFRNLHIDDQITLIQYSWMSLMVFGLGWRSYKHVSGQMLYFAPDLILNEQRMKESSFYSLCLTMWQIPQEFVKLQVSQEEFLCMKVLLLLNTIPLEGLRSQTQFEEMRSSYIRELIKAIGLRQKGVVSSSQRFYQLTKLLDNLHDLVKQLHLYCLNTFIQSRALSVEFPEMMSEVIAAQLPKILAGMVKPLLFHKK
# [2] = molecular target: 5-hydroxytryptamine receptor 2B (Homo sapiens, UniProt P41595); type: functional, cell-based
# [3] = molecular target: Histamine H3 receptor (Homo sapiens, UniProt Q9Y5N1)
# [4] = molecular target: Sodium-dependent dopamine transporter (Homo sapiens, UniProt Q01959)
# [5] = molecular target: Mu-type opioid receptor (Homo sapiens, UniProt P35372)
# [6] = molecular target: T2, Estrogen receptor (Homo sapiens, UniProt P03372)
# T2 sequence (P03372 whole entry): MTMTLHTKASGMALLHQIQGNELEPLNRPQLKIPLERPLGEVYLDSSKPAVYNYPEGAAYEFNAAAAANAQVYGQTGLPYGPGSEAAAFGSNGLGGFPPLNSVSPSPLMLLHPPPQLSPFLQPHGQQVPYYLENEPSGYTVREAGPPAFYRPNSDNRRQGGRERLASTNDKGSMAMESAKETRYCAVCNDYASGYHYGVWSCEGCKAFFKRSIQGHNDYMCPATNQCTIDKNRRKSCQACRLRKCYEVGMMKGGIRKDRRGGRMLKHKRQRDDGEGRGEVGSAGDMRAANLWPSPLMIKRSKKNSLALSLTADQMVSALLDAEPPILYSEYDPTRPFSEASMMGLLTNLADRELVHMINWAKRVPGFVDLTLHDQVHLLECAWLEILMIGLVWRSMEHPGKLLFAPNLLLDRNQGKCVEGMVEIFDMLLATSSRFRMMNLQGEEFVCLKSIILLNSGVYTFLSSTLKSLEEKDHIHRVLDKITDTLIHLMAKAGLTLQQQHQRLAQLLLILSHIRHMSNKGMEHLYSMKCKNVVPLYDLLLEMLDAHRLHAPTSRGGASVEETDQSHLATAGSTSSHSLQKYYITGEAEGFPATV
# [7] = molecular target: T3, Alpha-1A adrenergic receptor (Homo sapiens, UniProt P35348); type: functional, cell-based
# T3 sequence (P35348 whole entry): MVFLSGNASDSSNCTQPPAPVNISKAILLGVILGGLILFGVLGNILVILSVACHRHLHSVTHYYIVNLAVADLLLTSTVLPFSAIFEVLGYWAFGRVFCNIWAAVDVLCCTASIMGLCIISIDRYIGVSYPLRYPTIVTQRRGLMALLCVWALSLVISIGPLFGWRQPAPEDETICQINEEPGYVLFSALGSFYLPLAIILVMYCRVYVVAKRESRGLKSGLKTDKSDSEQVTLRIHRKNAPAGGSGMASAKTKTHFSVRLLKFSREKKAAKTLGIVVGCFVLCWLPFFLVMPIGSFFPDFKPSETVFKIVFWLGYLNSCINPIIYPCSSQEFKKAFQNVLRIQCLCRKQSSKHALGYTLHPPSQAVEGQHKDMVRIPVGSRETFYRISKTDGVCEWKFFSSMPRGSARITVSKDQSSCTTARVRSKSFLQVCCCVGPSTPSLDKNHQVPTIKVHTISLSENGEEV
# [8] = molecular target: T3, Alpha-1A adrenergic receptor; type: functional, cell-based; remark: listed apart in the source
# [9] = molecular target: T4, Thromboxane A2 receptor (Homo sapiens, UniProt P21731); type: functional, cell-based
# T4 sequence (P21731 whole entry): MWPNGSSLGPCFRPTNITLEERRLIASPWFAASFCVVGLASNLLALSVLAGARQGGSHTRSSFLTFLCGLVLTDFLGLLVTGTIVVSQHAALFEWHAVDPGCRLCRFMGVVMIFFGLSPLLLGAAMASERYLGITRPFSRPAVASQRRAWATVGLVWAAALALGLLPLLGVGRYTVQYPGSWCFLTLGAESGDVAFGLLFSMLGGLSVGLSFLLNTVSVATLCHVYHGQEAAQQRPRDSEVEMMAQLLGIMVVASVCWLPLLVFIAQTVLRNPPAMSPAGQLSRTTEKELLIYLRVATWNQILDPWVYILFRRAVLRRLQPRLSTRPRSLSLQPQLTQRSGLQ
# [10] = molecular target: T5, Adenosine receptor A3 (Homo sapiens, UniProt P0DMS8)
# T5 sequence (P0DMS8 whole entry): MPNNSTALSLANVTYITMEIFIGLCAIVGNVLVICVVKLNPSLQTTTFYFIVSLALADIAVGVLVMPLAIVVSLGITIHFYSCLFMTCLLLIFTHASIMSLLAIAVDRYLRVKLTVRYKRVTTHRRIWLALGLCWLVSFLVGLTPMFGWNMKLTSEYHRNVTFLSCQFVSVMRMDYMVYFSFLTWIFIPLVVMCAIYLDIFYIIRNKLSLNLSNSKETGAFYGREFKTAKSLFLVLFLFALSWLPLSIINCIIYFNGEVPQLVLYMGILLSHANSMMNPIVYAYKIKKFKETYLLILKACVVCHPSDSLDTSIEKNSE
# Also: assay procedure not described here.
# Sodium-dependent dopamine transporter, sequence (Q01959 whole entry): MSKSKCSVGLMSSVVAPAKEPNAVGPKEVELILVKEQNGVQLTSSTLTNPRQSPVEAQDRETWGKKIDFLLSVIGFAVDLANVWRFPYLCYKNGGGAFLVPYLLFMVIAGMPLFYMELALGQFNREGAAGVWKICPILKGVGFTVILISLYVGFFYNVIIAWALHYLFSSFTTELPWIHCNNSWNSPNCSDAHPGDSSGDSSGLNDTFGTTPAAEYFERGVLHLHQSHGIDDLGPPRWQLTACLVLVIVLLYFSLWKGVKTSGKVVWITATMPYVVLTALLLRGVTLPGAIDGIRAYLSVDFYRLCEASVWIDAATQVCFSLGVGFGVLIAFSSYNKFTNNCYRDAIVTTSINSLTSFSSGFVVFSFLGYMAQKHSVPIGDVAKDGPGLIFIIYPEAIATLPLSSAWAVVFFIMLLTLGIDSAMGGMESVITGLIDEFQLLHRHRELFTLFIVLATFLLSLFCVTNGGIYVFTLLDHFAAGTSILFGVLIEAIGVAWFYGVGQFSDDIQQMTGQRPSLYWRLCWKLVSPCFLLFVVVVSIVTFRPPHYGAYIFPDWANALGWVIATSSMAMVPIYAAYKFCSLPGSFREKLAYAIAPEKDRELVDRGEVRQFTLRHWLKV
# Histamine H3 receptor, sequence (Q9Y5N1 whole entry): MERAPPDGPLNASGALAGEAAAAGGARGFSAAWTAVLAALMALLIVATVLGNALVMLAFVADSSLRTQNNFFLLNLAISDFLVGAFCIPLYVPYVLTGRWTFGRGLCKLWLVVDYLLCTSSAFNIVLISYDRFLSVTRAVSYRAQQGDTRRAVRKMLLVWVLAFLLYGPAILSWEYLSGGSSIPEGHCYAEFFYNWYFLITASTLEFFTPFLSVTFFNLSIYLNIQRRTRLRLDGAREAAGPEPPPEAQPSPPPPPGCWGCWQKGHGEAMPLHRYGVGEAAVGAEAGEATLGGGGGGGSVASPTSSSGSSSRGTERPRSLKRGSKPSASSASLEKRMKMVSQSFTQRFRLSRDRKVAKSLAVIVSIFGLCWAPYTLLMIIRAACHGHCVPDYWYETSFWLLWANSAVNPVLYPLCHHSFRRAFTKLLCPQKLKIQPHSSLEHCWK
# 5-hydroxytryptamine receptor 2B, sequence (P41595 whole entry): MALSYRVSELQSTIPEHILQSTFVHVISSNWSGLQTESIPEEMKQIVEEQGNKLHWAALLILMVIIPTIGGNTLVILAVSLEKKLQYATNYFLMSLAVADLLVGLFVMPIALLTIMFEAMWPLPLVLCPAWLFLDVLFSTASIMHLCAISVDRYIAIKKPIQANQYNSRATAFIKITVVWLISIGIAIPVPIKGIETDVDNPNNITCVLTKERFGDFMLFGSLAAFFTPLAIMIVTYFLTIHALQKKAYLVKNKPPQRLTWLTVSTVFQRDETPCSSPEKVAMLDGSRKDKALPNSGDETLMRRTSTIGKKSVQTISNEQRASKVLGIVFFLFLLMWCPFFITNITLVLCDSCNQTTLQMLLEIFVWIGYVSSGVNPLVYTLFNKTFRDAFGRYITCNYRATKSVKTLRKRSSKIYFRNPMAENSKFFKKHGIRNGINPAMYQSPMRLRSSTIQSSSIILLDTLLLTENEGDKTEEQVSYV
# Mu-type opioid receptor, sequence (P35372 whole entry): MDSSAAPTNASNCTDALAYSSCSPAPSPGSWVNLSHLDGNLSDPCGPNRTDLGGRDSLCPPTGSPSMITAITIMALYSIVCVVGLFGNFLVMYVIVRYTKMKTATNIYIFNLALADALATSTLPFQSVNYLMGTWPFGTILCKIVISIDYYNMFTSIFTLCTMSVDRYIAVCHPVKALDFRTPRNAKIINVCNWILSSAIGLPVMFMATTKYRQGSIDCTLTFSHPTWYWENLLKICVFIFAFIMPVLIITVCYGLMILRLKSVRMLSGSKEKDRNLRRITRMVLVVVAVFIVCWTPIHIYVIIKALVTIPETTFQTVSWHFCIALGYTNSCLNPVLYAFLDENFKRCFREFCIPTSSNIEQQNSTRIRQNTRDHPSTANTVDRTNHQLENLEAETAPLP
SMILES,AC50 [1],AC50 [2],AC50 [3],AC50 [4],AC50 [5],AC50 [6],AC50 [7],AC50 [8],AC50 [9],AC50 [10]
COc1cccc2c1C(=O)c1c(O)c3c(c(O)c1C2=O)C[C@@](O)(C(=O)CO)C[C@@H]3O[C@H]1C[C@H](N)[C@H](O)[C@H](C)O1 [DOXORUBICIN],> 30 µM,> 30 µM,> 30 µM,> 30 µM,> 30 µM,> 30 µM,> 30 µM,> 30 µM,> 3 µM,> 30 µM
Cc1c(C(C)C)c(=O)n(-c2ccccc2)n1C [PROPYPHENAZONE],> 30 µM,> 30 µM,> 30 µM,> 30 µM,> 30 µM,> 30 µM,> 30 µM,> 30 µM,> 30 µM,21.9 µM
[H]/N=C(/N)NS(=O)(=O)c1ccc(N)cc1 [SULFAGUANIDINE],> 30 µM,> 30 µM,> 30 µM,> 30 µM,> 30 µM,> 30 µM,> 30 µM,> 30 µM,> 30 µM,> 30 µM
C[C@@H]1CN(c2c(F)c(N)c3c(=O)c(C(=O)O)cn(C4CC4)c3c2F)C[C@H](C)N1 [SPARFLOXACIN],> 30 µM,> 30 µM,> 30 µM,> 30 µM,> 30 µM,> 30 µM,> 30 µM,> 30 µM,> 30 µM,> 30 µM
COC(=O)Nc1nc2cc(C(=O)c3ccc(F)cc3)ccc2[nH]1 [FLUBENDAZOLE],> 30 µM,> 30 µM,> 30 µM,> 30 µM,> 30 µM,> 30 µM,> 30 µM,> 30 µM,> 30 µM,8.69 µM
COc1cccc2c1C(=O)c1c(O)c3c(c(O)c1C2=O)C[C@@](O)(C(=O)CO)C[C@@H]3O[C@H]1C[C@H](N)[C@@H](O)[C@H](C)O1 [EPIRUBICIN],> 30 µM,> 30 µM,> 30 µM,> 30 µM,> 30 µM,> 30 µM,> 1 µM,8.86 µM,> 30 µM,> 30 µM
CC(C)(Oc1ccc(C(=O)c2ccc(Cl)cc2)cc1)C(=O)O [FENOFIBRIC ACID],> 30 µM,> 30 µM,> 30 µM,> 30 µM,> 30 µM,> 30 µM,> 30 µM,> 30 µM,> 30 µM,> 30 µM
Oc1ccc(OCc2ccccc2)cc1 [MONOBENZONE],> 30 µM,> 30 µM,> 30 µM,8.56 µM,> 30 µM,> 30 µM,> 30 µM,> 30 µM,> 30 µM,> 30 µM
CC(=O)OCC(=O)[C@@]1(O)CC[C@H]2[C@@H]3C[C@H](C)C4=CC(=O)C=C[C@]4(C)[C@H]3[C@@H](O)C[C@@]21C [METHYLPREDNISOLONE ACETATE],3.03 µM,> 30 µM,> 30 µM,> 30 µM,> 30 µM,> 30 µM,> 30 µM,> 30 µM,> 30 µM,> 30 µM
CN1C(C(=O)Nc2ccccn2)=C(OC(=O)/C=C/c2ccccc2)c2ccccc2S1(=O)=O [PIROXICAM CINNAMATE],> 30 µM,> 30 µM,> 30 µM,> 30 µM,> 30 µM,> 30 µM,> 30 µM,> 30 µM,> 30 µM,> 30 µM
Cc1ccc(Cl)c(Nc2ccccc2C(=O)O)c1Cl [MECLOFENAMIC ACID],> 30 µM,> 30 µM,> 30 µM,> 30 µM,> 30 µM,> 30 µM,> 30 µM,> 30 µM,20 µM,29.6 µM
COCC(=O)O[C@]1(CCN(C)CCCc2nc3ccccc3[nH]2)CCc2cc(F)ccc2[C@@H]1C(C)C [MIBEFRADIL],> 30 µM,> 30 µM,> 30 µM,9.53 µM,0.979 µM,> 30 µM,1.58 µM,25.9 µM,> 3 µM,14.3 µM
Nc1ccc(C(=O)NCC(=O)O)cc1 [AMINOHIPPURIC ACID],> 30 µM,> 30 µM,> 30 µM,> 30 µM,> 30 µM,> 30 µM,> 30 µM,> 30 µM,> 30 µM,> 30 µM
CCCCC(=O)O[C@H]1CC[C@H]2[C@@H]3CCc4cc(O)ccc4[C@H]3CC[C@]12C [ESTRADIOL VALERATE],0.234 µM,> 30 µM,> 30 µM,> 30 µM,> 30 µM,0.0822 µM,> 30 µM,> 30 µM,23.1 µM,6.74 µM
NC(=O)N/N=C/c1ccc([N+](=O)[O-])o1 [NITROFURAZONE],> 30 µM,> 30 µM,> 30 µM,> 30 µM,> 30 µM,> 30 µM,> 30 µM,> 30 µM,> 30 µM,> 30 µM
Cc1ccc2c([nH]c(=O)c3c(=O)cc(C(=O)OCCC(C)C)oc32)c1C,> 30 µM,> 10 µM,> 30 µM,> 30 µM,> 30 µM,> 30 µM,> 30 µM,> 30 µM,> 30 µM,0.0521 µM

# — ChEMBL document CHEMBL5291721, “A preclinical secondary pharmacology resource illuminates target-adverse drug reaction associations of marketed drugs” (Nat Commun, 2023)
